Reference: patent US20090227619A1, “Harmine derivatives, intermediates used in their preparations, preparation processes and use therefo” (priority 2003, published 2009)
“And” between values parts separate entries of the source, which are not always exact repeats. Identical values can stand only once. Like-named read-outs stand apart in the source and are kept apart here.

Assays:
NIH3T3 = test: In vitro cytotoxicity, IC50 by MTT method, NIH3T3; assay type: cell-based
Procedure, shortened: (§1)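 Cells in RPMI1640 with 10% FBS at 37° C, 5% CO2 were seeded at 10^5/ml and exposed to a compound concentration gradient for 48 h, at least three replicates, solvent controls.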

HepG2 = test: In vitro cytotoxicity, IC50 by MTT method, HepG2; assay type: cell-based, human
Procedure, shortened: as §1

Lovo = test: In vitro cytotoxicity, IC50 by MTT method, Lovo; assay type: cell-based
Procedure, shortened: as §1

BGC-823 = test: In vitro cytotoxicity, IC50 by MTT method, BGC-823; assay type: cell-based
Procedure, shortened: as §1

Bel-7402 = test: In vitro cytotoxicity, IC50 by MTT method, Bel-7402; assay type: cell-based
Procedure, shortened: as §1

CT-DNA [1] = test: UV absorption spectrum method with CT-DNA; assay type: binding; settings: CT-DNA 40 ug/ml, compound 20 uM, 37° C. for 2 h, OD at 260 nm
Protocol: Compounds to be tested (20 uM) were added into the PE buffer solution, and its scan curve was identified by the spectrograph at a wavelength of from 200 to 400 nm. CT-DNA (40 ug/ml) and compounds to be tested (20 uM) were added into the PE buffer solution. The mixture was cultured at 37° C. for 2 h, and its scan curve was identified by the UV spectrograph at a wavelength of from 200 to 400 nm. […] After that, the OD value at 260 nm of the scan curve of the medicaments tested and that of the CT-DNA mixture OD value at 260 nm of the scan curve were calculated and compared to determine the influences of the medicaments tested on the UV absorption spectrum of the DNA molecules.

PLA-801 = test: In vitro cytotoxicity, IC50 by MTT method, PLA-801; assay type: cell-based
Procedure, shortened: as §1

Hela = test: In vitro cytotoxicity, IC50 by MTT method, Hela; assay type: cell-based
Procedure, shortened: as §1

CT-DNA [2] = test: DNA thermal denaturation, determination of ΔTm; assay type: binding; settings: 20 uM compound, Tm of CT-DNA alone 61° C.
Protocol: Experiments were carried out in PE buffer (1 mM Na2HPO4, 0.1 mM EDTA, pH 7.6) in a thermostatically controlled cell hold, and the quartz cuvette (1 cm path length) was heated by circulating water at a heating rate of 0.5° C./min from 25 to 95° C. Amsacrine and Doxorubicin Hydrochloride were used as standards. In all cases, the concentration of CT-DNA was 15 ug/ml. The ‘melting’ temperature Tm was taken as the mid-point of the hyperchromic transition.
ΔTm=Tm^drug-DNA complex−Tm^DNA alone
The ΔTm of each compound was calculated, Experiments were repeated three times, and an average value was calculated.

[3] = Mus musculus, NIH3T3 cell strain, read-out: IC50 NIH3T3
[4] = Homo sapiens, HepG2 cell strain, read-out: IC50 HepG2
[5] = Homo sapiens, Lovo cell strain, read-out: IC50 Lovo
[6] = Homo sapiens, BGC-823, BGC823 cell strain, read-out: IC50 BGC823
[7] = Homo sapiens, Bel-7402, Bel7402 cell strain, read-out: IC50 Bel7402
[8] = PLA-801 cell strain, read-out: IC50 PLA-801
[9] = Homo sapiens, Hela cell strain, read-out: IC50 Hela
[10] = CT-DNA 15 ug/ml, PE buffer pH 7.6
[11] = Mus musculus, NIH3T3, MTT, read-out: IC50
[12] = Homo sapiens, HepG2, MTT, read-out: IC50
[13] = Homo sapiens, Lovo, MTT, read-out: IC50
[14] = Homo sapiens, BGC-823, BGC823, MTT, read-out: IC50
[15] = Homo sapiens, Bel-7402, BeI7402, MTT, read-out: IC50
[16] = Homo sapiens, Hela, MTT, read-out: IC50

Structure (SMILES)	IC50 (NIH3T3; [3]) [µM]	IC50 (HepG2; [4]) [µM]	melting point	IC50 (Lovo; [5]) [µM]	IC50 (BGC-823; [6]) [µM]	IC50 (Bel-7402; [7]) [µM]	IC50 (PLA-801; [8]) [µM]	IC50 (Hela; [9]) [µM]	ΔTm (CT-DNA [2]; CT-DNA thermal denaturation) [°C]	other results
CC(=O)COc1cc2c3ccccc3n(Cc3ccccc3)c2cn1 [Compound 43, 9-benzyl-3-acetylmethoxy-β-carboline]	> 3000	300	141 to 142 °C	> 3000	> 3000	130	250	500	–	Influence on the UV absorption of DNA (CT-DNA [1]): increase the UV absorption of DNA
COc1cccc2c1C(=O)c1c(O)c3c(c(O)c1C2=O)C[C@@](O)(C(=O)CO)C[C@@H]3O[C@H]1C[C@H](N)[C@H](O)[C@H](C)O1 [adriamycin, reference compound]	–	–	–	–	–	–	–	–	10.8	ΔTm (CT-DNA [2]; [10]): 10.8 °C; Influence on the UV absorption of DNA (CT-DNA [1]): reduce the UV absorption of DNA
COc1ccc2c3ccnc(C)c3n(Cc3c(F)c(F)c(F)c(F)c3F)c2c1 [Compound 7, 9-(2′,3′,4′,5′,6′-pentafluoro)benzyl-7-methoxy-1-methyl-β-carboline]	–	–	–	–	–	–	–	–	7.5	IC50 (NIH3T3; NIH3T3, MTT, read-out: IC50): 50 µM; IC50 (HepG2; HepG2, MTT, read-out: IC50): 50 µM; IC50 (Lovo; Lovo, MTT, read-out: IC50): 40 µM; IC50 (BGC-823; BGC823, MTT, read-out: IC50): 20 µM; IC50 (Bel-7402; BeI7402, MTT, read-out: IC50): 40 µM; IC50 (PLA-801; PLA-801, MTT, read-out: IC50): 420 µM; IC50 (Hela; Hela, MTT, read-out: IC50): 40 µM
Cn1c2ccccc2c2ccncc21 [Compound 81, 9-methyl-β-carboline]	120	100	–	220	200	300	220	330	3.3	–
COc1ccc2c3ccnc(C)c3n(CCO)c2c1 [Compound 5, 9-hydroxyethyl-7-methoxy-1-methyl-β-carboline]	–	–	–	–	–	–	–	–	5.9	IC50 (NIH3T3; [11]): 80 µM; IC50 (HepG2; [12]): 310 µM; IC50 (Lovo; [13]): 30 µM; IC50 (BGC-823; [14]): 200 µM; IC50 (Bel-7402; [15]): 240 µM; IC50 (PLA-801; PLA-801, MTT, read-out: IC50): 80 µM; IC50 (Hela; [16]): 30 µM
O=C(OCc1ccccc1)c1cc2c3ccccc3n(Cc3ccccc3)c2cn1 [Compound 44, benzyl 9-benzyl-β-carboline-3-carboxylate]	> 3000	> 3000	169 to 170 °C	> 3000	> 3000	> 3000	> 3000	> 3000	–	–
CCCc1nc(C(=O)OCC)cc2c1[nH]c1ccccc12 [Compound 13, ethyl 1-propyl-β-carboline-3-carboxylate]	–	–	194 to 195 °C	–	–	–	–	–	–	IC50 (NIH3T3; [11]): 750 µM; IC50 (HepG2; [12]): 1060 µM; IC50 (Lovo; [13]): 740 µM; IC50 (BGC-823; [14]): > 3000 µM; IC50 (Bel-7402; [15]): > 3000 µM; IC50 (PLA-801; PLA-801, MTT, read-out: IC50): 670 µM; IC50 (Hela; [16]): > 3000 µM
CC[C@@]1(O)C(=O)OCc2c1cc1n(c2=O)Cc2cc3ccccc3nc2-1 [camptothecin, reference compound]	–	–	–	–	–	–	–	–	−2.5	ΔTm (CT-DNA [2]; [10]): −2.5 °C; Influence on the UV absorption of DNA (CT-DNA [1]): increase the UV absorption of DNA
CCCCn1c2ccccc2c2cc(C(=O)OC)ncc21 [Compound 28, methyl 9-n-butyl-β-carboline-3-carboxylate]	80	460	181 to 183 °C	170	310	430	140	290	–	–
CCOC(=O)c1cc2c3ccccc3n(C)c2cn1 [Compound 30, ethyl 9-methyl-β-carboline-3-carboxylate]	100	150	139 to 140 °C	100	150	140	120	180	–	–
CCn1c2ccccc2c2ccncc21 [Compound 82, 9-ethyl-β-carboline]	100	170	–	160	170	310	130	230	4.2	Influence on the UV absorption of DNA (CT-DNA [1]): reduce the UV absorption of DNA
CCn1c2ccccc2c2cc(NC(=O)OC)ncc21 [Compound 53, 9-ethyl-3-[(methoxycarbonyl)amino]-β-carboline]	> 3000	> 3000	213 to 214 °C	> 3000	> 3000	> 3000	> 3000	> 3000	–	–
c1ccc2c(c1)[nH]c1cnccc12 [Compound 80, β-carboline]	–	–	–	–	–	–	–	–	3.1	IC50 (NIH3T3; Mus musculus, NIH3T3, read-out: IC50 NIH3T3): 20 µM; IC50 (HepG2; Homo sapiens, HepG2, read-out: IC50 HepG2): 230 µM; IC50 (Lovo; Homo sapiens, LoVo, read-out: IC50 Lovo): 40 µM; IC50 (BGC-823; Homo sapiens, BGC-823, read-out: IC50 BGC823): 270 µM; IC50 (Bel-7402; Homo sapiens, Bel-7402, read-out: IC50 Bel7402): 380 µM; IC50 (PLA-801; read-out: IC50 PLA-801): 20 µM; IC50 (Hela; Homo sapiens, HeLa, read-out: IC50 Hela): 350 µM
CCCCOC(=O)c1cc2c3ccccc3n(Cc3ccccc3)c2cn1 [Compound 41, butyl 9-benzyl-β-carboline-3-carboxylate]	> 3000	> 3000	105 to 106 °C and 104 to 105 °C	1080	> 3000	> 3000	990	> 3000	–	–
OCc1cc2c(cn1)[nH]c1ccccc12 [Compound 24, 3-hydroxymethyl-β-carboline]	–	–	226 to 228 °C	–	–	–	–	–	–	IC50 (NIH3T3; [11]): 360 µM; IC50 (HepG2; [12]): 580 µM; IC50 (Lovo; [13]): 490 µM; IC50 (BGC-823; [14]): 780 µM; IC50 (Bel-7402; [15]): 740 µM; IC50 (PLA-801; PLA-801, MTT, read-out: IC50): 1080 µM; IC50 (Hela; [16]): 620 µM
CCCCOC(=O)c1cc2c3ccccc3n(CC)c2cn1 [Compound 39, butyl 9-ethyl-β-carboline-3-carboxylate]	80	70	86 to 88 °C	80	80	70	110	70	1.6	–
